From US10316039B2, “P2X3 and/or P2X2/3 compounds and methods” (Asana Biosciences, LLC, priority 2013, dated 2019)

Key:
P2X3 = biological target: T1, P2X3 (UniProt P56373); assay: P2X3 FLIPR intracellular calcium assay; assay type: cell-based; settings: agonist at EC75, species (human or rat) not given
T1 sequence (P56373 1-397): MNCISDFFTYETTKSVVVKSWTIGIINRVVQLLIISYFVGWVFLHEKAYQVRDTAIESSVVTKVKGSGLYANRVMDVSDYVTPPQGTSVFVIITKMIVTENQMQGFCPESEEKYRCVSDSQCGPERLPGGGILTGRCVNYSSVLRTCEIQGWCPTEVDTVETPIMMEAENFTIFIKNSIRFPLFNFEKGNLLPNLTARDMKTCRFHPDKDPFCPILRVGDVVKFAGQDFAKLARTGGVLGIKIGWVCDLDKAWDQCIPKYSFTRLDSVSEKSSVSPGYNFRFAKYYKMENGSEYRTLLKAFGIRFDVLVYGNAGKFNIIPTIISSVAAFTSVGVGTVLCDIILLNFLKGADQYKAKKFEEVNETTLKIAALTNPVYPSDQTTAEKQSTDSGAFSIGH
Excerpt: The FLIPR® assay utilizes cells which express human or rat P2X3 or P2X2/3 receptors. […] The PCR product obtained containing the protein coding sequence of rat P2X2 was cloned into EcoRV-digested and dephosphorylated vector pIRES-puro3 within the multiple cloning site (MCS). See, FIG. 1A.
Rat P2X3 (NCBI Accession No: X91167) was amplified by PCR from rat brain cDNA. The PCR product obtained containing the protein coding sequence of rat P2X3 was cloned into EcoRV-digested and dephosphorylated vector pCDNA-Hygro within the multiple cloning site (MCS) (FIG. 1B). Rat P2X3 cloned into pcDNA-Hygro was then subcloned into pcDNA-5/TO at HindIII (5′) and XhoI (3′) sites within the multiple cloning site (MCS) of the vector (FIG. 1C).
(§1) Transfection was carried out using super-coiled constructs (purified using QIAGEN kit) in antibiotic free, serum free DMEM using Lipofectamine® 2000 (Invitrogen) transfection agent. The DNA constructs rat P2X2 in pIRES-Puro3 and rat P2X3 in pCDNA5/TO were co-transfected into TRex293 cells in order to generate the rP2X2/3 stable line. 50 μg/mL hygromycin (Invitrogen) and 0.5 μg/mL puromycin (Fermentek) were used for selection of stable clones of rP2X2/3. Rat P2X3 in pCDNA5/TO DNA construct was transfected to CHO-TRex cells to generate the rP2×3 stable line and 500 μg/mL hygromycin (Invitrogen) was used as selection antibiotic. Transfected stable colonies were then functionally verified and robust clones suitable for assay were clonally purified through dilutions.
(§2) Cryo-vial containing 6×10^6 cells (human P2X3-HEK/human P2X2/3-TRex293/rat P2X2/3-TRex293/rat P2X3 TRex-CHO) was thawed in a 37° C. water bath. Cells were suspended in 20 mL of respective cell plating media (See annexure for composition) in a 50 mL centrifuge tube. The cell viability was checked with the help of Trypan Blue dye. Upon washing, cells were plated in a black 384-well clear bottomed, sterile poly-D-lysine coated plate such that, each well contained 10,000 cells (15,000/well for hP2X3) in 30 μL cell plating media. The plate was incubated in a 5% CO2 incubator at 37° C. for 24 h.
(§3) The next day, prior to the assay, the cell plating media was removed from each well by decanting and gentle tapping. Thirty μL of FLIPR Calcium 4 dye solution was added to each well. The plate was incubated at 37° C. for 45 min (60 min for hP2X3). The plate was next equilibrated at room temperature for 15 minutes before placing it in a 384 well FLIPR for the assay.
Dilutions were mixed with assay buffer just before performing the assay.
(§4) Compounds were added to the respective wells of the assay-ready cell plate with the help of the FLIPR and fluorescence readings were captured for 5 min to observe any possible agonistic property of the compounds. The plate was then incubated at room temperature for 15 min. The cells were stimulated with respective agonist EC75 concentration and the fluorescence readings were captured for another 5 min by FLIPR. The difference in fluorescence readings in presence of the compounds were compared with that of the control wells (wells having no compound) to calculate the inhibitory potency of the compounds. The IC50 values of the compounds were determined using the Graph pad Prism software.
(vi) Dye Solution Composition • 1×FLIPR Calcium 4 dye in assay buffer (Molecular devices Cat# R8141) • 1.8 mM Probenecid (Sigma Cat# P8761) • pH adjusted to 7.4

P2X2/3 = biological target: T2, P2X2/3 (Homo sapiens, UniProt P56373+Q9UBL9); assay: P2X2/3 FLIPR intracellular calcium assay; assay type: cell-based; settings: agonist at EC75, species (human or rat) not given
T2 sequence (Q9UBL9 1-471): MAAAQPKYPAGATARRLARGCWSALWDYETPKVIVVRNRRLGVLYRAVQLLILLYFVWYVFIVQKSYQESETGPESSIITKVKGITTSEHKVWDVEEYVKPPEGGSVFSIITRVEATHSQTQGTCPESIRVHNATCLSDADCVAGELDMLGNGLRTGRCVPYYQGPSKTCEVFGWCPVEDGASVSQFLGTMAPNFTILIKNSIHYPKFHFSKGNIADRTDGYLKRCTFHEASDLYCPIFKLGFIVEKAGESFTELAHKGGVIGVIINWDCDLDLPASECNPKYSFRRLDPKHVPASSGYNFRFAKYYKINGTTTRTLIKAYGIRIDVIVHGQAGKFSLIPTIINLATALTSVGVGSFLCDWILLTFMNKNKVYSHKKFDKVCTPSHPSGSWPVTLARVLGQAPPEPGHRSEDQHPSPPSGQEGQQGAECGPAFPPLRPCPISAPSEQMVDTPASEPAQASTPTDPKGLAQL
T2 sequence (P56373 1-397): T1 sequence (P56373 1-397)
Excerpt: The FLIPR® assay utilizes cells which express human or rat P2X3 or P2X2/3 receptors. Recombinant cells expressing hP2X3 (Cat#6188) and hP2X2/3 (Cat#6179) were procured from Chantest Corp. Rat P2X2 (NCBI Accession No: U14414) was amplified by PCR from PC12 cDNA (a rat adrenal medulla cell line). The PCR product obtained containing the protein coding sequence of rat P2X2 was cloned into EcoRV-digested and dephosphorylated vector pIRES-puro3 within the multiple cloning site (MCS). See, FIG. 1A.
as §1, §2, §3
Compounds were dissolved in DMSO and serially diluted following 11 point half log (3.16 fold) dilution with a starting concentration of 2 mM. Dilutions were mixed with assay buffer just before performing the assay.
as §4
(ii) Cell Plating Media for hP2X3-HEK and hP2X2/3-TRex293 Cells • DMEM/F12 (1:1) HAM media (Invitrogen; Cat#11039) • 1×NEAA (Invitrogen; Cat#11140) • 25 mM HEPES (Invitrogen; Cat#15630) • 1 mM sodium pyruvate (Invitrogen; Cat#11360) • 10% tetracycline negative FBS (PAA; Cat# A15-209) • 1 μg/mL doxycycline (Clontech; Cat#63131) [for hP2X2/3-TRex293 cells only]
(iii) Cell Plating Media for rP2X2/3-TRex293 Cells • DMEM media (Invitrogen; Cat#11965) • 25 mM HEPES (Invitrogen; Cat#15630) • 10% tetracycline negative FBS (PAA; Cat# A15-209) • 1 μg/mL Doxycycline (Clontech; Cat#63131)
(v) Assay Buffer Composition • HBSS (Invitrogen Cat#14025) • 20 mM HEPES (Invitrogen Cat#15630) • 0.01% F127 (Sigma Cat# P2443) • 1.8 mM CaCl2 (Sigma Cat# C5080) • pH adjusted to 7.4 […]

| Structure (SMILES) | IC50 (P2X3) | IC50 (P2X2/3) |
| --- | --- | --- |
| Cc1ccc(CNC(=O)c2cc(-c3c(C)noc3C)c3ncc(-c4ccc(C)s4)n3c2)cn1 [Example 106] | > 10000 nM | 1 to 100 nM |
| Cc1noc(C(C)NC(=O)c2cc(-n3nnnc3C(F)F)c3ncc(-c4ccc(C)s4)n3c2)n1 (stereo in doubt) [Example 19, (R)-8-(5-(Difluoromethyl)-1H-tetrazol-1-yl)-N-(1-(3-methyl-1,2,4-oxadiazol-5-yl)ethyl)-3-(5-methylthiophen-2-yl)imidazo[1,2-a]pyridine-6-carboxamide] | 1 to 100 nM | 1 to 100 nM |
| Cc1ccc(-c2cnc3c(-n4nncc4C4CC4)cc(C(=O)N[C@@H](C)c4nnc[nH]4)cn23)s1 [Example 34] | 1 to 100 nM | 1 to 100 nM |
| CCCSc1cnc2c(N3CCC(C)CC3)cc(C(=O)N[C@@H](C)c3nnc[nH]3)cn12 [Example 10, (S)—N-(1-(4H-1,2,4-Triazol-3-yl)ethyl)-8-(4-methylpiperidin-1-yl)-3-(propylthio)imidazo[1,2-a]pyridine-6-carboxamide] | 100 to 1000 nM | 1000 to 10000 nM |
| Cc1cnc(CNC(=O)c2cc(-n3nnnc3C(F)F)c3ncc(-c4ncc(C)s4)n3c2)cn1 [Example 185] | 100 to 1000 nM | 1000 to 10000 nM |
| Cc1ccc(-c2cnc3c(-n4nnnc4C4CCC4)cc(C(=O)NC(C)c4cnccn4)cn23)s1 (stereo not drawn) [Example 160] | > 10000 nM | 100 to 1000 nM |
| Cc1cccc(-c2cnc3c(N4CCC(C)CC4)cc(C(=O)N[C@@H](C)c4ncn[nH]4)cn23)c1 [Example 149] | 100 to 1000 nM | 1000 to 10000 nM |
| Cc1ccc(CNC(=O)c2cc(-n3nnnc3C(F)F)c3ncc(-c4ncc(C)s4)n3c2)cn1 [Example 173] | 100 to 1000 nM | 100 to 1000 nM |
| Cc1ccc(-c2cnc3c(-n4nncc4C(C)C)cc(C(=O)N[C@@H](C)c4nnc[nH]4)cn23)s1 [Example 37] | 1 to 100 nM | 1 to 100 nM |
| Cc1ccc(-c2cnc3c(-n4nncc4C(F)F)cc(C(=O)N[C@@H](C)c4nnc[nH]4)cn23)o1 [Example 60] | 1 to 100 nM | 1 to 100 nM |
| Cc1ccc(CNC(=O)c2cc(-n3nncc3C(F)(F)F)c3ncc(-c4ncc(C)s4)n3c2)cn1 [Example 56] | 1 to 100 nM | 100 to 1000 nM |
| Cc1ccc(-c2cnc3c(-c4cnn(C)c4)cc(C(=O)N[C@@H](C)c4nnc[nH]4)cn23)s1 [Example 8, (S)—N-(1-(4H-1,2,4-Triazol-3-yl)ethyl)-8-(1-methyl-1H-pyrazol-4-yl)-3-(5-methylthiophen-2-yl)imidazo[1,2-a]pyridine-6-carboxamide] | 1 to 100 nM | 100 to 1000 nM |
| Cc1ccc(CNC(=O)c2cc(-n3nnnc3C3CCC3)c3ncc(-c4ccc(C)s4)n3c2)cn1 [Example 155] | > 10000 nM | 1 to 100 nM |
| Cc1ccc(CNC(=O)c2cc(-n3nncc3C3CC3)c3ncc(-c4ccc(C)s4)n3c2)cn1 [Example 25] | 1 to 100 nM | 1 to 100 nM |
| Cc1ccc(CNC(=O)c2cc(-n3nnnc3C(C)C)c3ncc(-c4ccc(C)s4)n3c2)cn1 [Example 151] | 1 to 100 nM | 100 to 1000 nM |
| CCc1cnnn1-c1cc(C(=O)N[C@@H](CC)c2nnc[nH]2)cn2c(-c3ccc(C)s3)cnc12 [Example 58] | 1 to 100 nM | 1 to 100 nM |
| CC1CCN(c2cc(C(=O)N[C@@H](C)c3nnc[nH]3)cn3c(-c4ccc(Cl)s4)cnc23)CC1 [Example 118] | 100 to 1000 nM | 100 to 1000 nM |
| Cc1ccc(-c2cnc3c(NC4CCCC4)cc(C(=O)N[C@@H](C)c4nnc[nH]4)cn23)s1 [Example 135] | 100 to 1000 nM | 100 to 1000 nM |
| Cc1ncc(CNC(=O)c2cc(-n3nncc3C3CCC3)c3ncc(-c4ncc(C)s4)n3c2)cn1 [Example 55] | > 10000 nM | 100 to 1000 nM |
| COC1(C)CCN(c2cc(C(=O)N[C@@H](C)c3nnc[nH]3)cn3c(-c4ccc(C)s4)cnc23)CC1 [Example 139] | 1 to 100 nM | 100 to 1000 nM |
| Cc1ccc(-c2cnc3c(-n4nnnc4C(C)(F)F)cc(C(=O)N[C@@H](C)c4nnc[nH]4)cn23)s1 [Example 182] | 1 to 100 nM | 1 to 100 nM |
| Cc1ccc(-c2cnc3c(N4CCC(C)(C)CC4)cc(C(=O)N[C@@H](C)c4nnc[nH]4)cn23)s1 [Example 129] | 1 to 100 nM | 100 to 1000 nM |
| Cc1ccc(-c2cnc3c(Nc4ccc(F)cc4)cc(C(=O)N[C@@H](C)c4nnc[nH]4)cn23)s1 [Example 95] | 1 to 100 nM | > 10000 nM |
| Cc1ccc(-c2cnc3c(Nc4ccccc4)cc(C(=O)N[C@@H](C)c4nnc[nH]4)cn23)s1 [Example 7, (S)—N-(1-(4H-1,2,4-Triazol-3-yl)ethyl)-3-(5-methylthiophen-2-yl)-8-(phenylamino)imidazo[1,2-a]pyridine-6-carboxamide] | 1 to 100 nM | 100 to 1000 nM |
| Cc1ccc(-c2cnc3c(Nc4nccs4)cc(C(=O)N[C@@H](C)c4nnc[nH]4)cn23)s1 [Example 92] | 100 to 1000 nM | 1000 to 10000 nM |
| Cc1noc([C@@H](C)NC(=O)c2cc(-n3nncc3C(F)F)c3ncc(-c4ccc(C)s4)n3c2)n1 [Example 85] | 1 to 100 nM | 1 to 100 nM |
| Cc1ccc(CNC(=O)c2cc(N3CCC(C)CC3)c3ncc(-c4ccc(C)s4)n3c2)cn1 [Example 115] | 1000 to 10000 nM | 100 to 1000 nM |
